Test system: atrium
Assay: Effects on the atrial effective refractory period (S1-S2 extrastimulus technique during bilateral vagal nerve stimulation) in anesthetized beagles
Assay type: in vivo
Settings: intravenous, 0.3 mg/kg, from 5 minutes after administration, basic cycle length 300 msec
Method: Effects on the Effective Refractory Period
Beagles were anesthetized with pentobarbital sodium and thoracotomy was done along the median line under a respirator and the incision was made on the pericardium to expose the heart. An electrocardiogram (ECG) was recorded using bipolar electrodes attached to the surface of the right atrial free wall, right atrial auricle, and right ventricular free wall. The vagal nerves were stimulated using an electrostimulation device with Nichrome wires inserted into the vagal nerves in the neck bilaterally. The conditions for electrostimulation to the vagal nerves were set such that the RR intervals on ECG were prolonged by about 100 msec compared with those before the stimulation was started.
Atrial and ventricular effective refractory periods were determined by S1-S2 extrastimulus technique at basic cycle length of 300 msec during bilateral vagal nerve stimulation, using programmable electric stimulator. A train of 10 basic stimuli (S1) was followed by a premature extrastimulus (S2) at 2 times diastolic threshold.
For evaluation of drug effects, the atrial and ventricular effective refractory periods were determined before drug administration, then respective compound was administrated intravenously at the dose of 0.3 mg/kg or 0.6 mg/kg, and the atrial and ventricular effective refractory periods were determined from 5 minutes after the administration.
The results were shown as the prolongation time on the atrial and ventricular effective refractory periods, i.e. [effective refractory period after drug administration]−[effective refractory period before drug administration] (msec).

Row | SMILES | Atrial Refractory Period (prolongation time on the atrial effective refractory period) [ms]
1 | Cc1cc(Cl)nc2cc3c(cc12)OC(C)(C)[C@H](O)[C@H]3NCCc1cccnc1 (relative stereo) [Synthesis Example 41, (3R*,4S*)-7-chloro-2,2,9-trimethyl-4-{[2-(3-pyridyl)ethyl]amino}-3,4-dihydro-2H-pyrano[2,3-g]quinolin-3-ol] | 31
2 | Cc1cc(Cl)nc2cc3c(cc12)OC(C)(C)[C@H](O)[C@H]3NCCc1ccccc1F (relative stereo) [Synthesis Example 24, (3R*,4S*)-7-chloro-4-{[2-(2-fluorophenyl)ethyl]amino}-2,2,9-trimethyl-3,4-dihydro-2H-pyrano[2,3-g]quinolin-3-ol] | 23
3 | Cc1cc(C#N)nc2cc3c(cc12)OC(C)(C)[C@H](O)[C@H]3NCCc1ccccc1.O=C(O)/C=C\C(=O)O (relative stereo) [Synthesis Example 14, (3R*,4S*)-3-hydroxy-2,2,9-trimethyl-4-[(2-phenylethyl)amino]-3,4-dihydro-2H-pyrano[2,3-g]quinoline-7-carbonitrile 1 maleate] | 27
4 | Cc1cc(Cl)nc2cc3c(cc12)OC(C)(C)[C@H](O)[C@H]3NCCC1=CCCC1 (relative stereo) [Synthesis Example 48, (3R*,4S*)-7-chloro-4-[2-(1-cyclopentenylethyl)amino]-2,2,9-trimethyl-3,4-dihydro-2H-pyrano[2,3-g]quinolin-3-ol] | 23
5 | CC1(C)Oc2cc3nccnc3cc2[C@H](NCCc2ccccc2F)[C@H]1O.Cl (relative stereo) [Synthesis Example 60, (3R*,4S*)-4-{[2-(2-fluorophenyl)ethyl]amino}-2,2-dimethyl-3,4-dihydro-2H-pyrano[2,3-g]quinoxalin-3-ol hydrochloride] | 22
6 | Cc1cc(Cl)nc2cc3c(cc12)OC(C)(C)[C@H](O)[C@H]3NCCc1ccc(F)cc1 (relative stereo) [Synthesis Example 23, (3R*,4S*)-7-chloro-4-{[2-(4-fluorophenyl)ethyl]amino}-2,2,9-trimethyl-3,4-dihydro-2H-pyrano[2,3-g]quinolin-3-ol] | 22
7 | Cc1cc(Cl)nc2cc3c(cc12)OC(C)(C)[C@H](O)[C@H]3NCCC1CCCC1 (relative stereo) [Synthesis Example 47, (3R*,4S*)-7-chloro-4-[2-(cyclopentylethyl)amino]-2,2,9-trimethyl-3,4-dihydro-2H-pyrano[2,3-g]quinolin-3-ol] | 24
8 | Cc1cc(Cl)nc2cc3c(cc12)OC(C)(C)[C@H](O)[C@H]3NCC(O)c1ccccc1 (relative stereo) [Synthesis Example 27, (3R*,4S*)-7-chloro-4-[(2-hydroxy-2-phenylethyl)amino]-2,2,9-trimethyl-3,4-dihydro-2H-pyrano[2,3-g]quinolin-3-ol] | 32
9 | CCCC(O)CN[C@H]1c2cc3nc(Cl)cc(C)c3cc2OC(C)(C)[C@@H]1O (relative stereo) [Synthesis Example 58, (3R*,4S*)-7-chloro-4-[(2-hydroxypentyl)amino]-2,2,9-trimethyl-3,4-dihydro-2H-pyrano[2,3-g]quinolin-3-ol] | 28
10 | Cc1cc(CO)nc2cc3c(cc12)OC(C)(C)[C@H](O)[C@H]3NCCc1ccccc1.O=C(O)/C=C\C(=O)O (relative stereo) [Synthesis Example 18, (3R*,4S*)-7-hydroxymethyl-2,2,9-trimethyl-4-[(2-phenylethyl)amino]-3,4-dihydro-2H-pyrano[2,3-g]quinolin-3-ol 1 maleate] | 27
11 | Cc1cc(Cl)nc2cc3c(cc12)OC(C)(C)[C@H](O)[C@H]3NCCc1ccc(N)cc1 (relative stereo) [Synthesis Example 26, (3R*,4S*)-4-{([2-(4-aminophenyl)ethyl]amino}-7-chloro-2,2,9-trimethyl-3,4-dihydro-2H-pyrano[2,3-g]quinolin-3-ol] | 24
12 | CN1C(=O)COc2cc3c(cc21)OC(C)(C)[C@H](O)[C@H]3NCCc1ccccc1.Cl (relative stereo) [Synthesis Example 73, (7R*,8S*)-7-hydroxy-4,6,6-trimethyl-8-(2-phanylethylamino)-4,6,7,8-tetrahydro-1,5-dioxa-4-aza-anthracene-3-one hydrochloride] | 31
13 | Cc1cc(Cl)nc2cc3c(cc12)OC(C)(C)[C@H](O)[C@H]3NCCc1ccccc1.O=C(O)/C=C\C(=O)O (relative stereo) [Synthesis Example 19, (3R*,4S*)-7-chloro-2,2,9-trimethyl-4-[(2-phenylethyl)amino]-3,4-dihydro-2H-pyrano[2,3-g]quinolin-3-ol 1 maleate] | 26
14 | CCCCCN[C@H]1c2cc3nc(Cl)cc(C)c3cc2OC(C)(C)[C@@H]1O.Cl (relative stereo) [Synthesis Example 52, (3R*,4S*)-7-chloro-2,2,9-trimethyl-4-(pentylamino)-3,4-dihydro-2H-pyrano[2,3-g]quinolin-3-ol hydrochloride] | 28
15 | CC1(C)Oc2cc3nccnc3cc2[C@H](NCCc2ccc(F)cc2)[C@H]1O.Cl (relative stereo) [Synthesis Example 61, (3R*,4S*)-9-{[2-(4-fluorophenyl)ethyl]amino}-7,7-dimethyl-8,9-dihydro-7H-pyrano[2,3-g]quinoxalin-8-ol hydrochloride] | 20
16 | CC1(C)Oc2cc3nccnc3cc2[C@H](NCCc2ccccc2)[C@H]1O.O=C(O)/C=C\C(=O)O (relative stereo) [Synthesis Example 59, (3R*,4S*)-7,7-dimethyl-9-[(2-phenylethyl)amino]-8,9-dihydro-7H-pyrano[2,3-g]quinoxalin-8-ol 1 maleate] | 22
17 | Cc1cc(Cl)nc2cc3c(cc12)OC(C)(C)[C@H](O)[C@H]3NCCc1ccc(Cl)cc1 (relative stereo) [Synthesis Example 25, (3R*,4S*)-7-chloro-4-{[2-(4-chlorophenyl)ethyl]amino}-2,2,9-trimethyl-3,4-dihydro-2H-pyrano[2,3-g]quinolin-3-ol] | 27
18 | CC1(C)Oc2cc3c(cc2[C@H](NCCc2ccccc2)[C@H]1O)OCC(=O)N3 (relative stereo) [Synthesis Example 71, (7R*,8S*)-7-hydroxy-6,6-dimethyl-8-(2-phenylethyl)amino]-4,6,7,8-tetrahydro-1,5-dioxa-4-aza-anthracene-3-one] | 31

Same assay, conditions: intravenous, 0.6 mg/kg, from 5 minutes after administration, basic cycle length 300 msec

Row | SMILES | Atrial Refractory Period (prolongation time on the atrial effective refractory period) [ms]
19 | CC1(C)Oc2cc3c(cc2C(NCCc2ccccc2)C1O)NC(=O)CO3 (stereo not drawn) [Synthesis Example 74, 7-Hydroxy-6,6-dimethyl-8-(2-phenylethylamino)-7,8-dihydro-1H,6H-4,5-dioxa-1-aza-anthracene-2-one] | 25
20 | Cc1ccc2cc3c(cc2n1)C(NCCc1ccccc1)C(O)C(C)(C)O3.O=C(O)/C=C\C(=O)O (racemic) [Synthesis Example 4, (±)-trans-2,2,7-Trimethyl-4-[(2-phenylethyl)amino]-3,4-dihydro-2H-pyrano[2,3-g]quinolin-3-ol 3/2 maleate] | 30

Test system: not given
Assay: not given
Settings: not given

Row | SMILES | melting point
21 | Cc1cc(Cl)nc2cc3c(cc12)OC(C)(C)[C@H](O)[C@H]3NCCC1CCOCC1.Cl (relative stereo) | 318 to 320 °C (dec.)
22 | Cc1cc(C(N)=O)nc2cc3c(cc12)OC(C)(C)[C@H](O)[C@H]3NCCc1ccccc1 (relative stereo) [Synthesis Example 15, (3R*,4S*)-3-hydroxy-2,2,9-trimethyl-4-[(2-phenylethyl)amino]-3,4-dihydro-2H-pyrano[2,3-g]quinoline-7-carboxamide] | 168 to 169 °C
23 | CC1(C)Oc2ccc3nc(C(N)=O)ccc3c2[C@@H](NCCc2ccccc2)[C@@H]1O (racemic) [Synthesis Example 11, (±)-trans-2-Hydroxy-3,3-dimethyl-1-[(2-phenylethyl)amino]-2,3-dihydro-1H-pyrano[3,2-f]quinoline-8-carboxamide] | 197 to 199 °C
24 | Cc1ccc2cc3c(cc2n1)[C@H](NCCc1ccccc1)[C@@H](O)C(C)(C)O3.O=C(O)/C=C\C(=O)O (relative stereo) [Synthesis Example 13, (3R*,4S*)-2,2,7-trimethyl-4-[(2-phenylethyl)amino]-3,4-dihydro-2H-pyrano[2,3-g]quinolin-3-ol 1 maleate] | 214 to 217 °C (dec.)

— patent publication US7964623B2, “Tricyclic benzopyrane compound” (Nissan Chemical Industries Ltd., priority 2004, dated 2011)
